Test results: patent publication US20260297118A1, “SUBSTITUTED PYRIMIDINONE AND AZAPYRIMIDINONE COMPOUNDS, COMPOSITIONS, AND USES THEREOF” (LAKEWOOD AMEDEX, INC., priority 2023, published 2026)

Assays:
Format in all cases: cell-based
[1] = system: K. pneumoniae ATCC BAA-2146; test: MIC, broth microdilution, K. pneumoniae ATCC BAA-2146; set-up: unit not given beside the values; settings: K. pneumoniae ATCC BAA-2146, Gram −ve; pH 3; 18 to 24 hours
Procedure: (§1) MIC testing is conducted using the broth (Mueller Hinton Broth) microdilution procedures relevant to each organism group as established by the Clinical and Laboratory Standards Institute (CLSI; 3-7). MIC plates are prepared in accordance with CLSI (3-7). To prepare the test plates, automated liquid handlers are used to conduct serial dilutions and liquid transfers. Automated liquid handlers utilized in this study include the Multidrop 384 (Labsystems, Helsinki, Finland) and the Biomek 2000 (Beckman Coulter, Fullerton CA). The solution is diluted to desired pH using 1 M Citric Acid or 1 M NaOH buffer. A standardized inoculum of each test organism is prepared per CLSI methods (3, 5-7) to equal a 0.5 McFarland standard in the appropriate media followed by an additional 1:20 dilution (1:10 for anaerobes).
(§2) The plates are then inoculated with 10 μL of the diluted 0.5 McFarland suspension using the Biomek 2000 from low to high drug concentration, resulting in a final concentration of approximately 5×10^5 CFU/mL per well. An un-inoculated plate is incubated for the purpose of assessing solubility of the drug in the test media. The plates are stacked 3 to 4 high, covered with a sterile lid on the top plate, and incubated for 18 to 24 hours according to CLSI. The MIC is recorded as the lowest concentration of respective compound that inhibited visible growth of the organism.

[2] = system: S. haemolyticus ATCC-29970; test: MIC, broth microdilution, S. haemolyticus ATCC-29970; settings: S. haemolyticus ATCC-29970, Gram +ve; pH 3; 18 to 24 hours
Procedure: as §1, §2

[3] = system: S. dysgalactiae ATCC-6644; test: MIC, broth microdilution, S. dysgalactiae ATCC-6644; set-up: unit not given beside the values; settings: S. dysgalactiae ATCC-6644, Gram +ve; pH 3; 18 to 24 hours
Procedure: as §1, §2

S. aureus ATCC -3591 = test: MIC, broth microdilution, S. aureus ATCC -3591; set-up: unit not given beside the values; settings: S. aureus ATCC -3591, Gram +ve; pH 3; 18 to 24 hours
Procedure: as §1, §2

E. faecalis MMX-3353 = test: MIC, broth microdilution, E. faecalis MMX-3353; settings: E. faecalis MMX-3353, Gram +ve; pH 3; 18 to 24 hours
Procedure: as §1, §2

E. coli ATCC-25922 = test: MIC, broth microdilution, E. coli ATCC-25922; set-up: unit not given beside the values; settings: E. coli ATCC-25922, Gram −ve; pH 3; 18 to 24 hours
Procedure: as §1, §2

S. pyogenes ATCC-49399 = test: MIC, broth microdilution, S. pyogenes ATCC-49399; set-up: unit not given beside the values; settings: S. pyogenes ATCC-49399, Gram +ve; pH 3; 18 to 24 hours
Procedure: as §1, §2

E. faecalis ATCC-29212 = test: MIC, broth microdilution, E. faecalis ATCC-29212; set-up: unit not given beside the values; settings: E. faecalis ATCC-29212, Gram +ve; pH 3; 18 to 24 hours
Procedure: as §1, §2

A. baumannii ATCC-19606 = test: MIC, broth microdilution, A. baumannii ATCC-19606; set-up: unit not given beside the values; settings: A. baumannii ATCC-19606, Gram −ve; pH 3; 18 to 24 hours
Procedure: as §1, §2

[4] = system: Staphylococcus aureus (43330); test: MIC, broth microdilution, Staphylococcus aureus (43330); settings: pH 3, Mueller Hinton Broth, 18 to 24 hours, read-out: MIC
Procedure: as §1, §2

[5] = system: S. saprophyticus ATCC-49907; test: MIC, broth microdilution, S. saprophyticus ATCC-49907; set-up: unit not given beside the values; settings: S. saprophyticus ATCC-49907, Gram +ve; pH 3; 18 to 24 hours
Procedure: as §1, §2

Escherichia coli (25922) = test: MIC, broth microdilution, Escherichia coli (25922); settings: pH 3, Mueller Hinton Broth, 18 to 24 hours, read-out: MIC
Procedure: as §1, §2

E. coli MMX-8870 = test: MIC, broth microdilution, E. coli MMX-8870; settings: E. coli MMX-8870, Gram −ve; pH 3; 18 to 24 hours
Procedure: as §1, §2

K. pneumoniae ATCC-43816 = test: MIC, broth microdilution, K. pneumoniae ATCC-43816; set-up: unit not given beside the values; settings: K. pneumoniae ATCC-43816, Gram −ve; pH 3; 18 to 24 hours
Procedure: as §1, §2

H. influenzae ATCC-49247 = test: MIC, broth microdilution, H. influenzae ATCC-49247; set-up: unit not given beside the values; settings: H. influenzae ATCC-49247, Gram −ve; pH 3; 18 to 24 hours
Procedure: as §1, §2

S. agalactiae ATCC-13813 = test: MIC, broth microdilution, S. agalactiae ATCC-13813; set-up: unit not given beside the values; settings: S. agalactiae ATCC-13813, Gram +ve; pH 3; 18 to 24 hours
Procedure: as §1, §2

P. mirabilis CDC-0155 = test: MIC, broth microdilution, P. mirabilis CDC-0155; set-up: unit not given beside the values; settings: P. mirabilis CDC-0155, Gram −ve; pH 3; 18 to 24 hours
Procedure: as §1, §2

P. aeruginosa ATCC-27853 = test: MIC, broth microdilution, P. aeruginosa ATCC-27853; set-up: unit not given beside the values; settings: P. aeruginosa ATCC-27853, Gram −ve; pH 3; 18 to 24 hours
Procedure: as §1, §2

C. striatum ATCC-6940 = test: MIC, broth microdilution, C. striatum ATCC-6940; settings: C. striatum ATCC-6940, Gram +ve; pH 3; 18 to 24 hours
Procedure: as §1, §2

M. morganii CDC-0519 = test: MIC, broth microdilution, M. morganii CDC-0519; set-up: unit not given beside the values; settings: M. morganii CDC-0519, Gram −ve; pH 3; 18 to 24 hours
Procedure: as §1, §2

C. freundii CDC-0157 = test: MIC, broth microdilution, C. freundii CDC-0157; set-up: unit not given beside the values; settings: C. freundii CDC-0157, Gram −ve; pH 3; 18 to 24 hours
Procedure: as §1, §2

E. faecium ATCC-35667 = test: MIC, broth microdilution, E. faecium ATCC-35667; settings: E. faecium ATCC-35667, Gram +ve; pH 3; 18 to 24 hours
Procedure: as §1, §2

[6] = system: Pseudomonas aeruginosa (27853); test: MIC, broth microdilution, Pseudomonas aeruginosa (27853); settings: pH 3, Mueller Hinton Broth, 18 to 24 hours, read-out: MIC
Procedure: as §1, §2

E. faecium MMX-3355 = test: MIC, broth microdilution, E. faecium MMX-3355; set-up: unit not given beside the values; settings: E. faecium MMX-3355, Gram +ve; pH 3; 18 to 24 hours
Procedure: as §1, §2

S. aureus ATCC-29213 = test: MIC, broth microdilution, S. aureus ATCC-29213; set-up: unit not given beside the values; settings: S. aureus ATCC-29213, Gram +ve; pH 3; 18 to 24 hours
Procedure: as §1, §2

[7] = system: A. radioresistens MMX-8551; test: MIC, broth microdilution, A. radioresistens MMX-8551; set-up: unit not given beside the values; settings: A. radioresistens MMX-8551, Gram −ve; pH 3; 18 to 24 hours
Procedure: as §1, §2

E. cloacae ATCC BAA-2468 = test: MIC, broth microdilution, E. cloacae ATCC BAA-2468; set-up: unit not given beside the values; settings: E. cloacae ATCC BAA-2468, Gram −ve; pH 3; 18 to 24 hours
Procedure: as §1, §2

Candida albicans (22972) = test: MIC, broth microdilution, Candida albicans (22972); settings: pH 3, Mueller Hinton Broth, 18 to 24 hours, read-out: MIC
Procedure: as §1, §2

SMILES: CCCCOP(=O)(O)OC[C@@H]1CC[C@H](n2ccc(N)nc2=O)O1 [LAI-007, ((2S,5R)-5-(4-amino-2-oxopyrimidin-1(2H)-yl)tetrahydrofuran-2-yl)methyl butyl hydrogen phosphate]
- MIC [1]: 6.25
- MIC [2]: 6.25
- MIC [3]: 12.50
- MIC (S. aureus ATCC -3591): 6.25
- MIC (E. faecalis MMX-3353): 6.25
- MIC (E. coli ATCC-25922): 6.25
- MIC (S. pyogenes ATCC-49399): 3.13
- MIC (E. faecalis ATCC-29212): 6.25
- MIC (A. baumannii ATCC-19606): 6.25
- MIC [4]: 5 mg/mL
- MIC [5]: 3.13
- MIC (Escherichia coli (25922)): 25 mg/mL
- MIC (E. coli MMX-8870): 12.50
- MIC (K. pneumoniae ATCC-43816): 12.50
- MIC (H. influenzae ATCC-49247): 1.56
- MIC (S. agalactiae ATCC-13813): 1.56
- MIC (P. mirabilis CDC-0155): 3.13
- MIC (P. aeruginosa ATCC-27853): 8.75
- MIC (C. striatum ATCC-6940): 1.56
- MIC (M. morganii CDC-0519): 3.13
- MIC (C. freundii CDC-0157): 3.13
- MIC (E. faecium ATCC-35667): 6.25
- MIC [6]: 5 mg/mL
- MIC (E. faecium MMX-3355): 6.25
- MIC (S. aureus ATCC-29213): 6.25
- MIC [7]: 6.25
- MIC (E. cloacae ATCC BAA-2468): 6.25

SMILES: CC(C)COP(=O)(O)OC[C@H]1O[C@@H](n2ccc(N)nc2=O)C[C@@H]1O [LAI-003, ((2R,3S,5R)-5-(4-amino-2-oxopyrimidin-1(2H)-yl)-3-hydroxytetrahydrofuran-2-yl)methyl isobutyl hydrogen phosphate]
- MIC (Candida albicans (22972)): 20 mg/mL
- MIC [4]: 20 mg/mL
- MIC (Escherichia coli (25922)): 20 mg/mL
- MIC [6]: 20 mg/mL

SMILES: CC(C)CCOP(=O)(O)OC[C@H]1O[C@@H](n2ccc(N)nc2=O)C[C@@H]1O [LAI-004, ((2R,3S,5R)-5-(4-amino-2-oxopyrimidin-1(2H)-yl)-3-hydroxytetrahydrofuran-2-yl)methyl isopentyl hydrogen phosphate]
- MIC (Candida albicans (22972)): 50 mg/mL
- MIC [4]: 50 mg/mL
- MIC (Escherichia coli (25922)): 25 mg/mL
- MIC [6]: 5 mg/mL

SMILES: CCCCOP(=O)(O)OC[C@H]1O[C@@H](n2ccc(NC)nc2=O)C[C@@H]1O [LAI-009, butyl (((2R,3S,5R)-3-hydroxy-5-(4-(N-methylamino)-2-oxopyrimidin-1(2H)-yl)tetrahydrofuran-2-yl)methyl) hydrogen phosphate]
- MIC (Candida albicans (22972)): 50 mg/mL
- MIC [4]: 25 mg/mL
- MIC (Escherichia coli (25922)): 25 mg/mL
- MIC [6]: 5 mg/mL

SMILES: CCCCCCOP(=O)(O)OC[C@H]1O[C@@H](n2ccc(N)nc2=O)C[C@@H]1O [LAI-002, ((2R,3S,5R)-5-(4-amino-2-oxopyrimidin-1(2H)-yl)-3-hydroxytetrahydrofuran-2-yl)methyl hexyl hydrogen phosphate]
- MIC (Candida albicans (22972)): 50 mg/mL
- MIC [4]: 25 mg/mL
- MIC (Escherichia coli (25922)): 25 mg/mL
- MIC [6]: 5 mg/mL
